Measurements as given in patent US10544130B2, “Metallo-beta-lactamase inhibitors” (priority 2015, dated 2020).
Where two headings read alike, the source gives them in different places.

How the values were obtained:
[1] = system: Pseudomonas aeruginosa PAO1 MB9798 (efflux+, IMP-1); conditions: ratio MITC95 PA 9798/MITC95 PA 9799; imipenem at 2 μg/mL
Method in brief: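 Isogenic PAO1 pair (efflux+ MB9798, efflux− MB9799, both IMP-1) tested by microbroth MIC with fixed imipenem and/or ceftazidime, usually at CLSI breakpoint, plus fixed class A/C inhibitor against AmpC. MBL inhibitor titrated; concentration restoring susceptibility recorded and fold difference between strains taken as efflux extent.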

[2] = system: Serratia marcescens expressing IMP-1 (CL5741); assay type: cell-based; conditions: with imipenem 1 μg/ml, 95% inhibition of bacterial growth
Method: Antibiotic Potentiation Activity: Determination of Synergistic Concentration
The bacterial strains tested included the clinical strains Escherichia coli expressing NDM-1 (CLB30005, CLB30016), Serratia marcescens expressing IMP-1 (CL5741), and Klebsiella pneumoniae expressing VIM-1 (IHMA599644). Inhibitor activity was measured in the presence and absence of imipenem in a 384-well microplate.
The clinical strains CLB30016, CL5741 and IHMA599644 were grown on trypticase soy agar containing 5% sheep's blood. The bacteria on agar plates were incubated at 35° C. with humidity overnight. The following day, individual colonies from each clinical strain were picked and resuspended in 5 ml saline to attain an OD600 of 0.14, 0.11, 0.15 and 0.13, for CLB30016, CL5741 and IHMA599644, respectively. These were further diluted 1:100 into 1.1× CAMHB and used to inoculate the test wells as described below.
Imipenem in 10 mM 3-(N-morpholino)propanesulfonic acid (MOPS, pH 7) was stored in single use aliquots at −80° C. […] On the day of the assay, 4 μl of antibiotic was added to 45 ul of bacteria followed by 1 μl of test compound and mixed by pipetting and with an orbital shaker. The concentration of antibiotic used in the assay was 1 μg/ml. Microplates were covered and incubated at 35° C. for 22 hours to 24 hours. At the end of the incubation, absorbance was determined using a spectrophotometer.

Structure (SMILES)	Efflux ratio [1]	Serratia marcescens (IMP-1) MITC95 [2] [µM]	Serratia marcescens (IMP-1) MITC95 ([2]; CL5741) [µM]
C[N+]1(C)CC(NS(=O)(=O)c2ccc(-c3cccc4[nH]c(N)nc34)c(-c3nn[nH]n3)c2S(N)(=O)=O)C1.O=C([O-])O [Example 245, 3-(4-(2-Amino-1H-benzo[d]imidazol-4-yl)-2-sulfamoyl-3-(2H-tetrazol-5-yl)phenylsulfonamido)-1,1-dimethylazetidin-1-ium hydrogencarbonate]	1.00	1.563	
Nc1nc2c(-c3ccc(S(=O)(=O)NC[C@]4(N)CCNC4)c(S(N)(=O)=O)c3-c3nn[nH]n3)cccc2[nH]1 [Example 250, (S)-4-(2-amino-1H-benzo[d]imidazol-4-yl)-N1-((3-aminopyrrolidin-3-yl)methyl)-3-(2H-tetrazol-5-yl)benzene-1,2-disulfonamide]	1.00	0.7813	
CN1CC(NS(=O)(=O)c2ccc(-c3cccc4[nH]c(N)nc34)c(-c3nn[nH]n3)c2S(N)(=O)=O)C1 [Example 256, 4-(2-amino-1H-benzo[d]imidazol-4-yl)-N1-(1-methylazetidin-3-yl)-3-(2H-tetrazol-5-yl)benzene-1,2-disulfonamide]	1.00	0.7813	
NCCCCNS(=O)(=O)c1ccc(-c2cccc3[nH]c(N)nc23)c(-c2nn[nH]n2)c1S(N)(=O)=O [Example 258, 4-(2-amino-1H-benzo[d]imidazol-7-yl)-N1-(4-aminobutyl)-3-(2H-tetrazol-5-yl)benzene-1,2-disulfonamide]	1.00	0.7813	
Nc1nc2c(-c3ccc(S(=O)(=O)NC[C@H]4CCNC4)c(S(N)(=O)=O)c3-c3nn[nH]n3)cccc2[nH]1 [Example 259, (S)-4-(2-amino-1H-benzo[d]imidazol-4-yl)-N1-(pyrrolidin-3-ylmethyl)-3-(2H-tetrazol-5-yl)benzene-1,2-disulfonamide]	1.00	0.7813	
Nc1nc2c(-c3ccc(S(=O)(=O)NC[C@@H]4CCNC4)c(S(N)(=O)=O)c3-c3nn[nH]n3)cccc2[nH]1 [Example 263, (R)-4-(2-amino-1H-benzo[d]imidazol-4-yl)-N1-(pyrrolidin-3-ylmethyl)-3-(2H-tetrazol-5-yl)benzene-1,2-disulfonamide]	1.00	0.7813	
CC[C@H](CN)NS(=O)(=O)c1ccc(-c2cccc3[nH]c(N)nc23)c(-c2nn[nH]n2)c1S(N)(=O)=O [Example 265, (R)-4-(2-amino-1H-benzo[d]imidazol-4-yl)-N1-(1-aminobutan-2-yl)-3-(2H-tetrazol-5-yl)benzene-1,2-disulfonamide]	1.00	0.7813	
Cn1c(N)nc2c(-c3ccc(S(=O)(=O)NC[C@@H](O)CN)c(S(N)(=O)=O)c3-c3nn[nH]n3)cccc21 [Example 308, (S)-4-(2-amino-1-methyl-1H-benzo[d]imidazol-4-yl)-N1-(3-amino-2-hydroxypropyl)-3-(2H-tetrazol-5-yl)benzene-1,2-disulfonamide]	1.00	0.7813	
Nc1ccc2cccc(-c3ccc(S(=O)(=O)N[C@H]4CNC[C@H]4N)c(S(N)(=O)=O)c3-c3nn[nH]n3)c2n1 [Example 324, N1-((3S,4R)-4-aminopyrrolidin-3-yl)-4-(2-aminoquinolin-8-yl)-3-(1H-tetrazol-5-yl)benzene-1,2-disulfonamide]	1.00	0.7813	
N[C@@H]1CNC[C@@H]1NS(=O)(=O)c1ccc(-c2cccn3ccnc23)c(-c2nn[nH]n2)c1S(N)(=O)=O [Example 328, N1-((3S,4R)-4-aminopyrrolidin-3-yl)-4-(imidazo[1,2-a]pyridin-8-yl)-3-(2H-tetrazol-5-yl)benzene-1,2-disulfonamide]	1.00	1.563	
NCCNS(=O)(=O)c1ccc(-c2cccc3[nH]c([C@H](N)CO)nc23)c(-c2nn[nH]n2)c1S(N)(=O)=O [Example 330, (S)-4-(2-(1-amino-2-hydroxyethyl)-1H-benzo[d]imidazol-4-yl)-N1-(2-aminoethyl)-3-(2H-tetrazol-5-yl)benzene-1,2-disulfonamide]	1.00	1.563	
N[C@H]1C=C(c2ccc(S(=O)(=O)N[C@@H]3CCNC3)c(S(N)(=O)=O)c2-c2nn[nH]n2)CCC1 [Example 339, (R)-5′-amino-N4-((R)-pyrrolidin-3-yl)-2-(2H-tetrazol-5-yl)-2′,3′,4′,5′-tetrahydro-[1,1′-biphenyl]-3,4-disulfonamide]	4.00	1.563	
N[C@@H]1C=C(c2ccc(S(=O)(=O)N[C@@H]3CCNC3)c(S(N)(=O)=O)c2-c2nn[nH]n2)CCC1 [Example 340, (S)-5′-amino-N4-((R)-pyrrolidin-3-yl)-2-(2H-tetrazol-5-yl)-2′,3′,4′,5′-tetrahydro[1,1′-biphenyl]-3,4-disulfonamide]	4.00	1.563	
NCCNS(=O)(=O)c1ccc(-c2cccc3ccc(N)nc23)c(-c2nn[nH]n2)c1S(N)(=O)=O [Example 355, N1-(2-aminoethyl)-4-(2-aminoquinolin-8-yl)-3-(2H-tetrazol-5-yl)benzene-1,2-disulfonamide]	1.00	0.7813	
NS(=O)(=O)c1c(S(=O)(=O)NC[C@H]2CNCCN2)ccc(-c2cccc3[nH]cnc23)c1-c1nn[nH]n1 [Example 481, (R)-4-(1H-benzo[d]imidazol-4-yl)-N1-(piperazin-2-ylmethyl)-3-(1H-tetrazol-5-yl)benzene-1,2-disulfonamide]		1.563	
Nc1ccc(-c2ccc(S(=O)(=O)NC3CC(N)C3)c(S(N)(=O)=O)c2-c2nn[nH]n2)cn1 [Example 483, N1-((1R,3R)-3-aminocyclobutyl)-4-(6-aminopyridin-3-yl)-3-(2H-tetrazol-5-yl)benzene-1,2-disulfonamide]		0.7813	
Nc1ccc(-c2ccc(S(=O)(=O)N3CCNCC3)c(S(N)(=O)=O)c2-c2nn[nH]n2)cn1 [Example 485, 3-(6-aminopyridin-3-yl)-6-(piperazin-1-ylsulfonyl)-2-(2H-tetrazol-5-yl)benzenesulfonamide]		0.7813	
Nc1ccc(-c2ccc(S(=O)(=O)NC[C@@H]3CCNC3)c(S(N)(=O)=O)c2-c2nn[nH]n2)cn1 [Example 491, (R)-4-(6-aminopyridin-3-yl)-N1-(pyrrolidin-3-ylmethyl)-3-(2H-tetrazol-5-yl)benzene-1,2-disulfonamide]		0.7813	
Nc1ccc(-c2ccc(S(=O)(=O)NCC3(O)CCNCC3)c(S(N)(=O)=O)c2-c2nn[nH]n2)cn1 [Example 492, 4-(6-aminopyridin-3-yl)-N1-((4-hydroxypiperidin-4-yl)methyl)-3-(2H-tetrazol-5-yl)benzene-1,2-disulfonamide]		1.563	
Nc1ccc(-c2ccc(S(=O)(=O)N[C@H]3CCCNC3)c(S(N)(=O)=O)c2-c2nn[nH]n2)cn1 [Example 494, (S)-4-(6-aminopyridin-3-yl)-N1-(piperidin-3-yl)-3-(2H-tetrazol-5-yl)benzene-1,2-disulfonamide]			1.563
Nc1ccc(-c2ccc(S(=O)(=O)NCC3(O)CNC3)c(S(N)(=O)=O)c2-c2nn[nH]n2)cn1 [Example 495, 4-(6-aminopyridin-3-yl)-N1-((3-hydroxyazetidin-3-yl)methyl)-3-(2H-tetrazol-5-yl)benzene-1,2-disulfonamide]			0.7813
Cl.Cl.NCCCNS(=O)(=O)c1ccc(-c2ccc(N)nc2)c(-c2nn[nH]n2)c1S(N)(=O)=O [Example 496, N1-(3-aminopropyl)-4-(6-aminopyridin-3-yl)-3-(2H-tetrazol-5-yl)benzene-1,2-disulfonamide hydrogen chloride]			0.7813
CC1(NS(=O)(=O)c2ccc(-c3ccc(N)nc3)c(-c3nn[nH]n3)c2S(N)(=O)=O)CNC1.Cl.Cl [Example 497, 4-(6-aminopyridin-3-yl)-1-N-(3-methylazetidin-3-yl)-3-(2H-1,2,3,4-tetrazol-5-yl)benzene-1,2-disulfonamide hydrogen chloride]			0.7813
